Laboratory results taken from patent publication US20150087673A1, “METHODS FOR USING AND BIOMARKERS FOR AMPK-ACTIVATING COMPOUNDS” (RIGEL PHARMACEUTICALS, INC., priority 2013, published 2015).

Tested on: AMPK
Experiment: AMPK activation assay (enzyme-linked immunosorbent assay)
Type: cell-based
Outline: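 Read-out: immunodetected kinase activation after compound exposure, run with commercial kit reagents.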

Compound	EC50 [nM]
N#Cc1ccc(CN2CCC(NC(=O)c3ccc(C(=O)N4CCN(c5ccc(S(=O)(=O)C6CC6)cc5)CC4)cn3)CC2)cc1 [Compound 256, N-(1-(4-cyanobenzyl)piperidin-4-yl)-5-(4-(4-(cyclopropylsulfonyl)phenyl)piperazine-1-carbonyl)picolinamide]	< 500
N#Cc1ccc(CN2CCC(NC(=O)c3ccc(C(=O)N4CCN(c5ccc(S(=O)(=O)C(F)(F)F)cc5)CC4)cn3)CC2)cc1 [Compound 257, N-(1-(4-cyanobenzyl)piperidin-4-yl)-5-(4-(4-(trifluoromethylsulfonyl)phenyl)piperazine-1-carbonyl)picolinamide]	< 500
N#Cc1ccc(CN2CCC(NC(=O)c3ccc(C(=O)N4CCN(c5ccc(C(=O)C6CC6)cc5)CC4)cn3)CC2)cc1 [Compound 258, N-(1-(4-cyanobenzyl)piperidin-4-yl)-5-(4-(4-(cyclopropanecarbonyl)phenyl)piperazine-1-carbonyl)picolinamide]	< 500
CC(=O)c1ccc(Oc2ccc(NC(=O)c3ccc(C(=O)N4CCC(Oc5ccc(S(C)(=O)=O)cc5)CC4)cn3)cn2)cc1 [Compound 259, N-(6-(4-acetylphenoxy)pyridin-3-yl)-5-(4-(4-(methylsulfonyl)phenoxy)piperidine-1-carbonyl)picolinamide]	< 500
CCS(=O)(=O)c1ccc(C(=O)C2CCN(C(=O)c3ccc(C(=O)NC4CCN(Cc5ccc(C#N)cc5)CC4)nc3)CC2)cc1 [Compound 260, N-(1-(4-cyanobenzyl)piperidin-4-yl)-5-(4-(4-(ethylsulfonyl)benzoyl)piperidine-1-carbonyl)picolinamide]	< 500
CS(=O)(=O)c1ccc(OC2CCN(C(=O)c3ccc(C(=O)Nc4ccc(S(=O)(=O)c5ccc(F)cc5)nc4)nc3)CC2)cc1 [Compound 261, N-(6-(4-fluorophenylsulfonyl)pyridin-3-yl)-5-(4-(4-(methylsulfonyl)phenoxy)piperidine-1-carbonyl)picolinamide]	< 500
N#Cc1ccc(CN2CCC(NC(=O)c3ccc(C(=O)N4CCC(S(=O)(=O)c5ccc(F)cc5)CC4)cn3)CC2)cc1 [Compound 262, N-(1-(4-cyanobenzyl)piperidin-4-yl)-5-(4-(4-fluorophenylsulfonyl)piperidine-1-carbonyl)picolinamide]	< 500
N#Cc1ccc(CN2CCC(NC(=O)c3ccc(C(=O)N4CCN(c5ccc(C(=O)C(F)(F)F)cc5)CC4)cn3)CC2)cc1 [Compound 263, N-(1-(4-cyanobenzyl)piperidin-4-yl)-5-(4-(4-(2,2,2-trifluoroacetyl)phenyl)piperazine-1-carbonyl)picolinamide]	< 500
O=C(NC1CCN(Cc2ccccc2)CC1)c1ccc(C(=O)NC2CCN(Cc3ccccc3)CC2)nc1 [Compound 264, N2,N5-bis(1-benzylpiperidin-4-yl)pyridine-2,5-dicarboxamide]	5000 to 10000
N#Cc1ccc(CN2CCC(NC(=O)c3ccc(N4CCCC(Oc5ccc(C#N)cc5)C4)cn3)CC2)cc1 (stereo not drawn) [Compound 265, N-(1-(4-cyanobenzyl)piperidin-4-yl)-5-(3-(4-cyanophenoxy)piperidin-1-yl)picolinamide]	1000 to 5000
N#Cc1ccc(CN2CCC(NC(=O)c3ccc(N4CCC(C(=O)c5ccc(Cl)cc5)CC4)cn3)CC2)cc1 [Compound 266, 5-(4-(4-chlorobenzoyl)piperidin-1-yl)-N-(1-(4-cyanobenzyl)piperidin-4-yl)picolinamide]	< 500
N#Cc1ccc(CN2CCC(NC(=O)c3ccc(NC4CCN(c5ccc(C#N)cc5)CC4)cn3)CC2)cc1 [Compound 267, N-(1-(4-cyanobenzyl)piperidin-4-yl)-5-(1-(4-cyanophenyl)piperidin-4-ylamino)picolinamide]	< 500
N#Cc1ccc(CN2CCC(NC(=O)c3ccc(C(=O)N4CCC(Oc5ccncc5)CC4)cn3)CC2)cc1 [Compound 269, N-(1-(4-cyanobenzyl)piperidin-4-yl)-5-(4-(pyridin-4-yloxy)piperidine-1-carbonyl)picolinamide]	< 500
N#Cc1ccc(CN2CCC(NC(=O)c3ccc(C(=O)N4CC[C@H](Oc5ccc(F)cc5)C4)cn3)CC2)cc1 [Compound 270, (S)-N-(1-(4-cyanobenzyl)piperidin-4-yl)-5-(3-(4-fluorophenoxy)pyrrolidine-1-carbonyl)picolinamide]	< 500
N#Cc1ccc(CN2CCC(NC(=O)c3ccc(C(=O)N4CCC(C(=O)c5ccc(F)cc5F)CC4)cn3)CC2)cc1 [Compound 271, N-(1-(4-cyanobenzyl)piperidin-4-yl)-5-(4-(2,4-difluorobenzoyl)piperidine-1-carbonyl)picolinamide]	< 500
O=C(Nc1ccc(Oc2ccc(F)cc2)nc1)c1ccc(C(=O)N2CCC(C(=O)c3ccc(F)cc3)CC2)cn1 [Compound 272, 5-(4-(4-fluorobenzoyl)piperidine-1-carbonyl)-N-(6-(4-fluorophenoxy)pyridin-3-yl)picolinamide]	< 500
O=C(Nc1ccc(Oc2ccc(F)cc2)nc1)c1ccc(C(=O)N2CCC(Oc3ccc(F)cc3)CC2)cn1 [Compound 273, 5-(4-(4-fluorophenoxy)piperidine-1-carbonyl)-N-(6-(4-fluorophenoxy)pyridin-3-yl)picolinamide]	< 500

Compound	EC50 [nM]
COc1ccc(OC2CCCN(C(=O)c3ccc(C(=O)NC4CCN(Cc5ccc(C#N)cc5)CC4)nc3)C2)cc1 (stereo not drawn) [Compound 274, N-(1-(4-cyanobenzyl)piperidin-4-yl)-5-(3-(4-methoxyphenoxy)piperidine-1-carbonyl)picolinamide]	> 10000
COc1ccc(N2CCC(Nc3ccc(C(=O)NC4CCN(Cc5ccc(C#N)cc5)CC4)nc3)CC2)cc1 [Compound 275, N-(1-(4-cyanobenzyl)piperidin-4-yl)-5-(1-(4-methoxyphenyl)piperidin-4-ylamino)picolinamide]	< 500
N#Cc1ccc(CN2CCC(NC(=O)c3ccc(NC4CCN(c5ccc(F)cc5)CC4)cn3)CC2)cc1 [Compound 276, N-(1-(4-cyanobenzyl)piperidin-4-yl)-5-(1-(4-fluorophenyl)piperidin-4-ylamino)picolinamide]	< 500
COc1cccc(OC2CCCN(C(=O)c3ccc(C(=O)NC4CCN(Cc5ccc(C#N)cc5)CC4)nc3)C2)c1 (stereo not drawn) [Compound 277, N-(1-(4-cyanobenzyl)piperidin-4-yl)-5-(3-(3-methoxyphenoxy)piperidine-1-carbonyl)picolinamide]	< 500
N#Cc1ccc(CN2CCC(NC(=O)c3ccc(C(=O)N4CC[C@@H](Oc5ccc(F)cc5)C4)cn3)CC2)cc1 [Compound 278, (R)-N-(1-(4-cyanobenzyl)piperidin-4-yl)-5-(3-(4-fluorophenoxy)pyrrolidine-1-carbonyl)picolinamide]	< 500
N#Cc1ccc(CN2CCC(NC(=O)c3ccc(C(=O)N4C5CCC4CC(Oc4ccc(C#N)cc4)C5)cn3)CC2)cc1 [Compound 280, N-(1-(4-cyanobenzyl)piperidin-4-yl)-5-((1R,3r,5S)-3-(4-cyanophenoxy)-8-azabicyclo[3.2.1]octane-8-carbonyl)picolinamide]	< 500
N#Cc1ccc(CN2CCC(NC(=O)c3ccc(C(=O)N4CCC(C(=O)c5ccc(F)c(F)c5)CC4)cn3)CC2)cc1 [Compound 281, N-(1-(4-cyanobenzyl)piperidin-4-yl)-5-(4-(3,4-difluorobenzoyl)piperidine-1-carbonyl)picolinamide]	< 500
N#Cc1ccc(CN2CCC(NC(=O)c3ccc(C(=O)N4CCC(Oc5ccc(F)cc5F)CC4)cn3)CC2)cc1 [Compound 282, N-(1-(4-cyanobenzyl)piperidin-4-yl)-5-(4-(2,4-difluorophenoxy)piperidine-1-carbonyl)picolinamide]	< 500
N#Cc1ccc(CN2CCC(NC(=O)c3ccc(C(=O)N4CCC(Oc5cccnc5)CC4)cn3)CC2)cc1 [Compound 283, N-(1-(4-cyanobenzyl)piperidin-4-yl)-5-(4-(pyridin-3-yloxy)piperidine-1-carbonyl)picolinamide]	< 500
CCOC(=O)c1ccc(OC2CCN(C(=O)c3ccc(C(=O)NC4CCN(Cc5ccc(C#N)cc5)CC4)nc3)CC2)cc1 [Compound 284, ethyl 4-(1-(6-(1-(4-cyanobenzyl)piperidin-4-ylcarbamoyl)nicotinoyl)piperidin-4-yloxy)benzoate]	< 500
COc1ccc(CN2CCC(NC(=O)c3ccc(C(=O)N4CCN(Cc5ccc(C#N)cc5)CC4)cn3)CC2)cc1 [Compound 285, 5-(4-(4-cyanobenzyl)piperazine-1-carbonyl)-N-(1-(4-methoxybenzyl)piperidin-4-yl)picolinamide]	< 500
COc1cc(C#N)ccc1OC1CCN(c2ccc(C(=O)NC3CCN(Cc4ccc(C#N)cc4)CC3)nc2)CC1 [Compound 286, 5-(4-(4-cyano-2-methoxyphenoxy)piperidin-1-yl)-N-(1-(4-cyanobenzyl)piperidin-4-yl)picolinamide]	< 500
COc1ccc(C(=O)C2CCN(C(=O)c3ccc(C(=O)NC4CCN(Cc5cc(F)cc(F)c5)CC4)nc3)CC2)cc1 [Compound 287, N-(1-(3,5-difluorobenzyl)piperidin-4-yl)-5-(4-(4-methoxybenzoyl)piperidine-1-carbonyl)picolinamide]	< 500
O=C(NC1CCN(Cc2cc(F)cc(F)c2)CC1)c1ccc(C(=O)N2CCC(C(=O)c3ccc(F)cc3)CC2)cn1 [Compound 288, N-(1-(3,5-difluorobenzyl)piperidin-4-yl)-5-(4-(4-fluorobenzoyl)piperidine-1-carbonyl)picolinamide]	< 500
N#Cc1ccc(OC2CCN(C(=O)c3ccc(C(=O)NC4CCN(Cc5cc(F)cc(F)c5)CC4)nc3)CC2)cc1 [Compound 289, 5-(4-(4-cyanophenoxy)piperidine-1-carbonyl)-N-(1-(3,5-difluorobenzyl)piperidin-4-yl)picolinamide]	< 500
CC(C)(C)OC(=O)NCCCc1cc(C(=O)N2CCN(Cc3ccc(F)cc3)CC2)cnc1C(=O)NC1CCN(Cc2ccc(C#N)cc2)CC1 [Compound 290, tert-butyl 3-(2-(1-(4-cyanobenzyl)piperidin-4-ylcarbamoyl)-5-(4-(4-fluorobenzyl)piperazine-1-carbonyl)pyridin-3-yl)propylcarbamate]	< 500
